Results reported in the NIST ThermoML archive (doi:10.1016/j.jct.2018.05.029).
Numbers after ± are expanded uncertainties.

Tests used:
[1] = molar heat capacity at saturation pressure
[2] = Molar enthalpy of transition or fusion; conditions: Crystal; Adiabatic calorimetry

Cc1cc2ccccc2[nH]1 [2-methylindole]
molar heat capacity [J/K/mol], [1]
Conditions | Crystal | Liquid
10 K, Vacuum adiabatic calorimetry | 2.311 ± 0.033 | –
11.27 K, Vacuum adiabatic calorimetry | 3.226 ± 0.042 | –
12.41 K, Vacuum adiabatic calorimetry | 4.157 ± 0.05 | –
13.64 K, Vacuum adiabatic calorimetry | 5.288 ± 0.058 | –
15.08 K, Vacuum adiabatic calorimetry | 6.718 ± 0.067 | –
16.68 K, Vacuum adiabatic calorimetry | 8.364 ± 0.075 | –
18.46 K, Vacuum adiabatic calorimetry | 10.26 ± 0.091 | –
20 K, Vacuum adiabatic calorimetry | 11.87 ± 0.091 | –
20.49 K, Vacuum adiabatic calorimetry | 12.38 ± 0.091 | –
22.77 K, Vacuum adiabatic calorimetry | 14.82 ± 0.091 | –
25.3 K, Vacuum adiabatic calorimetry | 17.44 ± 0.091 | –
27.77 K, Vacuum adiabatic calorimetry | 19.95 ± 0.083 | –
30 K, Vacuum adiabatic calorimetry | 22.09 ± 0.075 | –
30.59 K, Vacuum adiabatic calorimetry | 22.64 ± 0.075 | –
34.09 K, Vacuum adiabatic calorimetry | 25.92 ± 0.083 | –
37.85 K, Vacuum adiabatic calorimetry | 29.24 ± 0.091 | –
40 K, Vacuum adiabatic calorimetry | 31.03 ± 0.1 | –
41.97 K, Vacuum adiabatic calorimetry | 32.62 ± 0.1 | –
46.6 K, Vacuum adiabatic calorimetry | 36.27 ± 0.11 | –
50 K, Vacuum adiabatic calorimetry | 38.75 ± 0.12 | –
51.65 K, Vacuum adiabatic calorimetry | 39.93 ± 0.12 | –
53.69 K, Vacuum adiabatic calorimetry | 41.38 ± 0.12 | –
57.12 K, Vacuum adiabatic calorimetry | 43.67 ± 0.12 | –
59.07 K, Vacuum adiabatic calorimetry | 45 ± 0.13 | –
60 K, Vacuum adiabatic calorimetry | 45.61 ± 0.13 | –
64.85 K, Vacuum adiabatic calorimetry | 48.69 ± 0.14 | –
70 K, Vacuum adiabatic calorimetry | 51.82 ± 0.14 | –
71.32 K, Vacuum adiabatic calorimetry | 52.61 ± 0.15 | –
78.49 K, Vacuum adiabatic calorimetry | 56.75 ± 0.16 | –
80 K, Vacuum adiabatic calorimetry | 57.59 ± 0.16 | –
86.43 K, Vacuum adiabatic calorimetry | 61.12 ± 0.17 | –
90 K, Vacuum adiabatic calorimetry | 63.03 ± 0.22 | –
95.28 K, Vacuum adiabatic calorimetry | 65.82 ± 0.23 | –
100 K, Vacuum adiabatic calorimetry | 68.27 ± 0.23 | –
104.89 K, Vacuum adiabatic calorimetry | 70.77 ± 0.24 | –
114.73 K, Vacuum adiabatic calorimetry | 75.78 ± 0.25 | –
120 K, Vacuum adiabatic calorimetry | 78.44 ± 0.25 | –
124.69 K, Vacuum adiabatic calorimetry | 80.8 ± 0.26 | –
134.71 K, Vacuum adiabatic calorimetry | 85.9 ± 0.27 | –
140 K, Vacuum adiabatic calorimetry | 88.58 ± 0.27 | –
144.77 K, Vacuum adiabatic calorimetry | 91.01 ± 0.27 | –
154.9 K, Vacuum adiabatic calorimetry | 96.19 ± 0.28 | –
160 K, Vacuum adiabatic calorimetry | 98.83 ± 0.29 | –
165.05 K, Vacuum adiabatic calorimetry | 101.46 ± 0.29 | –
175.19 K, Vacuum adiabatic calorimetry | 106.71 ± 0.31 | –
180 K, Vacuum adiabatic calorimetry | 109.23 ± 0.31 | –
185.36 K, Vacuum adiabatic calorimetry | 112.05 ± 0.32 | –
195.56 K, Vacuum adiabatic calorimetry | 117.49 ± 0.32 | –
200 K, Vacuum adiabatic calorimetry | 119.87 ± 0.33 | –
205.76 K, Vacuum adiabatic calorimetry | 122.96 ± 0.33 | –
215.96 K, Vacuum adiabatic calorimetry | 128.49 ± 0.35 | –
220 K, Vacuum adiabatic calorimetry | 130.72 ± 0.35 | –
226.14 K, Vacuum adiabatic calorimetry | 134.11 ± 0.36 | –
236.28 K, Vacuum adiabatic calorimetry | 139.71 ± 0.37 | –
240 K, Vacuum adiabatic calorimetry | 141.78 ± 0.37 | –
246.38 K, Vacuum adiabatic calorimetry | 145.35 ± 0.38 | –
256.59 K, Vacuum adiabatic calorimetry | 151.16 ± 0.39 | –
260 K, Vacuum adiabatic calorimetry | 153.09 ± 0.4 | –
266.92 K, Vacuum adiabatic calorimetry | 157.02 ± 0.4 | –
276.47 K, Vacuum adiabatic calorimetry | 162.53 ± 0.42 | –
277.41 K, Vacuum adiabatic calorimetry | 163.05 ± 0.42 | –
280 K, Vacuum adiabatic calorimetry | 164.7 ± 0.42 | –
287.09 K, Vacuum adiabatic calorimetry | 169.07 ± 0.42 | –
288.08 K, Vacuum adiabatic calorimetry | 169.56 ± 0.42 | –
297.66 K, Vacuum adiabatic calorimetry | 175.26 ± 0.44 | –
298.15 K, Vacuum adiabatic calorimetry | 175.55 ± 0.44 | 224.57 ± 0.54
298.88 K, Vacuum adiabatic calorimetry | 176.09 ± 0.44 | –
300 K, Vacuum adiabatic calorimetry | 176.66 ± 0.44 | 225.41 ± 0.54
302.77 K, Vacuum adiabatic calorimetry | 178.44 ± 0.45 | –
304.06 K, Vacuum adiabatic calorimetry | 179.13 ± 0.45 | –
308.05 K, Vacuum adiabatic calorimetry | 181.6 ± 0.45 | –
309.63 K, Vacuum adiabatic calorimetry | 182.65 ± 0.46 | –
311.79 K, Vacuum adiabatic calorimetry | 184.11 ± 0.46 | –
312.14 K, Vacuum adiabatic calorimetry | 184.35 ± 0.46 | –
320 K, Vacuum adiabatic calorimetry | 189.37 ± 0.47 | 234.36 ± 0.56
320.34 K, Vacuum adiabatic calorimetry | 189.58 ± 0.47 | –
331.97 K, Vacuum adiabatic calorimetry | 197.27 ± 0.48 | 239.7 ± 0.57
337.63 K, Vacuum adiabatic calorimetry | – | 242.18 ± 0.57
338.88 K, Vacuum adiabatic calorimetry | – | 242.77 ± 0.57
340 K, Vacuum adiabatic calorimetry | – | 243.31 ± 0.58
341.57 K, Vacuum adiabatic calorimetry | – | 244.01 ± 0.58
349.89 K, Vacuum adiabatic calorimetry | – | 247.67 ± 0.59
350.31 K, Vacuum adiabatic calorimetry | – | 247.9 ± 0.59
360 K, Vacuum adiabatic calorimetry | – | 252.22 ± 0.6
362.02 K, Vacuum adiabatic calorimetry | – | 253.13 ± 0.6
374.86 K, Vacuum adiabatic calorimetry | – | 258.66 ± 0.61
380 K, Vacuum adiabatic calorimetry | – | 260.9 ± 0.62
387.5 K, Vacuum adiabatic calorimetry | – | 264.11 ± 0.62
399.88 K, Vacuum adiabatic calorimetry | – | 269.16 ± 0.63
400 K, Vacuum adiabatic calorimetry | – | 269.22 ± 0.63
412.6 K, Vacuum adiabatic calorimetry | – | 274.35 ± 0.64
420 K, Vacuum adiabatic calorimetry | – | 277.24 ± 0.65
425.58 K, Vacuum adiabatic calorimetry | – | 279.37 ± 0.66
436.98 K, Vacuum adiabatic calorimetry | – | 283.72 ± 0.67
440 K, Vacuum adiabatic calorimetry | – | 284.91 ± 0.67
460 K, Small sample (50 mg) DSC | – | 292.55 ± 4.5
480 K, Small sample (50 mg) DSC | – | 299.89 ± 4.6
500 K, Small sample (50 mg) DSC | – | 307.02 ± 4.8
520 K, Small sample (50 mg) DSC | – | 313.94 ± 5
540 K, Small sample (50 mg) DSC | – | 320.66 ± 5.2
560 K, Small sample (50 mg) DSC | – | 327.16 ± 5.7
580 K, Small sample (50 mg) DSC | – | 333.46 ± 6
600 K, Small sample (50 mg) DSC | – | 339.55 ± 6.5
620 K, Small sample (50 mg) DSC | – | 345.45 ± 6.9
640 K, Small sample (50 mg) DSC | – | 351.22 ± 7.5
660 K, Small sample (50 mg) DSC | – | 356.94 ± 7.9
680 K, Small sample (50 mg) DSC | – | 362.78 ± 8.6
700 K, Small sample (50 mg) DSC | – | 369.01 ± 9

Conditions | Molar enthalpy of transition or fusion [kJ/mol]
[2] | 14.84 ± 0.032
